The text below walks through data of patent publication US20180333389A1, “VITAMIN E COMPOSITIONS AND METHODS OF USE THEREFOR” (BIOELECTRON TECHNOLOGY CORPORATION, priority 2017, published 2018).

Where two headings read alike, the source gives them in different places. A value given as a limit tells only on which side of the number the result lay.

Series [1] has as its system Q7 cells (ST HDH Q7/7; immortalized mouse striatal cells). The experiment in a line: Q7 striatal cell survival assay upon cystine deprivation. Type of series: cell-based. The conditions noted are these: for EC50: Q7 cell survival after 18 h in cystine-free medium, Cell Titer Glo, read-out: EC50 (nM) geometric mean (n ≥ 3 independent experiments); for potency in rescuing Q7 cells from oxidative stress relative to the RRR isomer: compared with RRR-alpha-tocopherol. The method, then: In neuronal cells excess extracellular glutamate inhibits the cystine/glutamate antiporter leading to intracellular cysteine depletion, GSH depletion, ROS production and cell death, a phenomenon termed oxidative glutamate toxicity or oxytosis. Q7 cells (ST HDH Q7/7; immortalized mouse striatal cells) challenged with cystine-free media recapitulate this phenotype. An initial screen was performed to identify compounds effective in rescuing Q7 cells from death resulting from cystine deprivation. This method is further described in Yonezawa et al., J. Neurochem 67, 566-573 (1996), and Li et al., J Neurosci., 23, 5816-5826 (2003).
DMEM (Catalog no. 11995-040), DMEM without Cystine (Catalog no. 21013-024), PBS (Phosphate buffered saline), Penicillin-streptomycin mix, L-Glutamine and Pyruvate were purchased from Gibco. Fetal Bovine Serum was obtained from Mediatech, Inc. Mouse striatum derived ST HDH Q7/7 (Q7) cells were obtained from Dr. M. MacDonald (Massachusetts General Hospital). Methionine and Vitamin K2 were purchased from Sigma Aldrich. Cell Titer Glo 2.0 was purchased from Promega. Geneticin (G418) Sulfate was purchased from Santa Cruz Biotechnology. Cell culture medium (Growth medium) was made by combining 50 mL Fetal Bovine Serum, 100 U/mL penicillin, 100 microgram/mL streptomycin and 400 microgram/mL Geneticin (G418) Sulfate; DMEM was added to make the volume up to 500 mL. Assay medium (without Cystine) was made by combining 50 mL Fetal Bovine Serum, 100 U/mL penicillin, 100 microgram/mL streptomycin, 4 mM L-Glutamine, 1 mM Pyruvate and 30 mg/L Methionine; DMEM without Cystine was added to make the volume up to 500 mL. During the course of the experiments, these solutions were stored at 4° C. The cells were grown in 10-cm diameter tissue culture-treated dishes. Every fourth day, the cells were subcultured by trypsinization and re-seeding at a cell density of 500,000 cells per dish.
Test samples were supplied in 1.5 mL glass vials. The compounds were diluted with an appropriate volume of DMSO to result in a 1 mM stock solution. Once dissolved, they were stored at −20 ° C.
Q7 cells were cultured routinely as described herein. For 384-well cell survival assays, cells were seeded in clear bottom, black wall 384-well tissue culture-treated polystyrene plates by resuspending a cell suspension at a density of 50,000 cells/mL in growth medium, then dispensing 60 microliters of cell suspension per well using either an electronic multichannel pipette or a Multidrop™ Combi Reagent Dispenser (ThermoFisher Scientific), corresponding to 3,000 cells/well. The cell-containing plates were incubated 5 hours at 33° C. in an atmosphere with 95% humidity and 5% CO2 to allow attachment of the cells to the culture plate. 5 hours after cell seeding into the 384-well assay plate, the cell culture medium was replaced by washing 2 times with 70 microliters/well PBS (without Ca^++ and Mg^++) using a BioTek ELx405 plate washer. After the final aspiration, 60 microliters/well of assay medium (without cystine) was added using the Multidrop™ Combi Reagent Dispenser. […]
After medium change to cystine-free medium and compound addition, cell plates were incubated at 33° C. in an atmosphere of 5% CO2 and 95% humidity. […] After 15 minutes of incubation at room temperature, the luminescence (100 ms integration time) per well was determined using the BioTek Synergy plate reader. […]

The target of series [2] is SQR (sulfide:quinone oxidoreductase) (Homo sapiens, UniProt Q9Y6N5). The experiment in a line: SQR activity of alpha-tocopherol quinones (rate of quinone reduction, absorbance at 266 nm). In kind it is biochemical. The settings on record: for rate of quinone reduction by SQR: 100 μM quinone, 25 nM SQR, 25° C., pH 7.5. The method, then:
SQR activity in the presence of varying concentrations of the isomers of quinone derivatives of Vitamin E was evaluated by monitoring the rate of quinone reduction using the absorbance of the quinone at 266 nm. Assays were conducted at 25° C. and pH 7.5 in a volume of 100 μL in the following buffer system: 100 mM Tris, 0.5 mM EDTA, 1.0% (w/v) Triton X-100 reduced. Sulfide (as Na2S nonahydrate) as reducing substrate and sulfite (as Na2SO3) as sulfur acceptor substrate were held constant at saturating concentrations of 200 μM and 2 mM, respectively. Quinone substrates were added to final concentrations between 0-200 μM from DMSO stock solutions resulting in 2% final concentration of DMSO (enzymatic rates were independent of DMSO concentration in this range). SQR was added at 25 nM.

A further series deals with HepG2 cells. The experiment in a line: Conversion of alpha-tocopherol to the corresponding quinone in HepG2 cells. In kind it is in vitro ADME. The settings on record: dosed at 1 μM, 3 μM and 10 μM, all three concentrations. The method, then:
(§1) DMEM (Catalog no. 11995-040), Penicillin-streptomycin mix, Geneticin (G418) Sulfate were purchased from Thermo Fisher Scientific. Fetal Bovine Serum was obtained from Sigma Aldrich. Mouse striatum-derived ST HDH Q7/7 (Q7) cells were obtained from Dr. M. MacDonald (Massachusetts General Hospital). HepG2 cells were obtained from ATCC. Normal human fibroblast cells (NHF) were obtained from Coriell. Cell culture medium for Q7 cell was prepared by combining 50 mL Fetal Bovine Serum, 100 U/mL penicillin, 100 microgram/mL streptomycin, and 400 microgram/mL Geneticin (G418) Sulfate; DMEM was added to bring the final volume to 500 mL. For HepG2 cells and NHF, cell culture medium was made by combining 50 mL Fetal Bovine Serum, 100 U/mL penicillin, and 100 microgram/mL streptomycin; DMEM was added to bring the final volume to 500 mL. During the course of the experiments, these solutions were stored at 4° C. […]
(§2) Quantification of compounds was determined by mass spectrometry.
The rate of conversion of R,R,R-alpha-tocopherol (black bars) and a 1:1:1:1:1:1:1:1 equimolar mixture of all 8 stereoisomers of alpha-tocopherol (grey bars) to their corresponding quinones was measured in HepG2 cells and is shown in FIG. 2. The percent of total cellular compound in the quinone form was measured at three different dosed concentrations: 1 μM, 3 μM, and 10 μM. […]

For series [3], the system named is Mouse striatum-derived ST HDH Q7/7 (Q7) cells. The experiment in a line: Conversion of alpha-tocopherol to the corresponding quinone in Q7 cells. In kind it is in vitro ADME. The settings on record: dosed at 1 μM, 3 μM and 10 μM, all three concentrations. The method, then:
as §1, §2
The rate of conversion of R,R,R-alpha-tocopherol (black bars) and a 1:1:1:1:1:1:1:1 equimolar mixture of all 8 stereoisomers of alpha-tocopherol (grey bars) to their corresponding quinones was measured in Q7 cells and is shown in FIG. 4. The percent of total cellular compound in the quinone form was measured at three different dosed concentrations: 1 μM, 3 μM, and 10 μM. […]

In series [4] the test system is Normal human fibroblast cells (NHF). The experiment in a line: Conversion of alpha-tocopherol to the corresponding quinone in NHF cells. In kind it is in vitro ADME. The method, then:
DMEM (Catalog no. 11995-040), Penicillin-streptomycin mix, Geneticin (G418) Sulfate were purchased from Thermo Fisher Scientific. Fetal Bovine Serum was obtained from Sigma Aldrich. Mouse striatum-derived ST HDH Q7/7 (Q7) cells were obtained from Dr. M. MacDonald (Massachusetts General Hospital). HepG2 cells were obtained from ATCC. Normal human fibroblast cells (NHF) were obtained from Coriell. Cell culture medium for Q7 cell was prepared by combining 50 mL Fetal Bovine Serum, 100 U/mL penicillin, 100 microgram/mL streptomycin, and 400 microgram/mL Geneticin (G418) Sulfate; DMEM was added to bring the final volume to 500 mL. For HepG2 cells and NHF, cell culture medium was made by combining 50 mL Fetal Bovine Serum, 100 U/mL penicillin, and 100 microgram/mL streptomycin; DMEM was added to bring the final volume to 500 mL. During the course of the experiments, these solutions were stored at 4° C. The cells were grown in 150-cm^2 tissue culture-treated flasks until they reached 90% confluency.
Test samples were supplied in 1.5 mL glass vials. The compounds were diluted with an appropriate volume of DMSO to result in a 10 mM stock solution. Once dissolved, they were stored at −20 ° C.
Test samples were applied according to the following protocol:
Q7, HepG2, and NHF Cells were seeded separately in clear bottom, 96-well tissue culture-treated polystyrene plates by resuspending each cell suspension at a density of 200,000 cells/mL in cell culture medium, then dispensing 50 microliters of cell suspension per well using an electronic multichannel pipette, corresponding to 10,000 cells/well. […]
as §2
The rate of conversion of R,R,R-alpha-tocopherol (black bars) and a 1:1:1:1:1:1:1:1 equimolar mixture of all 8 stereoisomers of alpha-tocopherol (grey bars) to their corresponding quinones was measured in NHF cells and is shown in FIG. 3. The percent of total cellular compound in the quinone form was measured at two different dosed concentrations: 3 μM and 10 μM. […]

Sequence of SQR (sulfide:quinone oxidoreductase) (Q9Y6N5 whole entry): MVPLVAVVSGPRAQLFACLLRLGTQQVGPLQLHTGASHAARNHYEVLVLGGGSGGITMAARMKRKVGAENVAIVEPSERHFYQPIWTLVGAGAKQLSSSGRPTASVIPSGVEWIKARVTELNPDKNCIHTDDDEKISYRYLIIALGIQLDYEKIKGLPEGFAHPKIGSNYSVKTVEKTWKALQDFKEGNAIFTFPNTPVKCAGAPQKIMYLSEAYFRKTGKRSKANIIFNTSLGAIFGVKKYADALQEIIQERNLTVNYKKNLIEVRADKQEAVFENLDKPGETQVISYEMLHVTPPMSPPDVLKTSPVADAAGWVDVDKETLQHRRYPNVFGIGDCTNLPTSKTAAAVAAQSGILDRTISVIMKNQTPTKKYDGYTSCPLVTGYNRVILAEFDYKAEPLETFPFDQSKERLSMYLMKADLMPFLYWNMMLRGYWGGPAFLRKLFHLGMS

For `Cc1c(C)c2c(c(C)c1O)CCC(C)(CCCC(C)CCCC(C)CCCC(C)C)O2` (single isomer, unassigned) [Equal mixture of all 8 stereoisomers of alpha-tocopherol, all-rac alpha-tocopherol], in series [1], the concentration giving a half-maximal response (EC50) turned out to be 313 nM and the “potency in rescuing Q7 cells from oxidative stress relative to the RRR isomer” value is “approximately half as potent as the RRR isomer”.
With `CC1=C(C)C(=O)C(CC[C@](C)(O)CCC[C@H](C)CCC[C@H](C)CCCC(C)C)=C(C)C1=O` [R,R,R-alpha-tocopherol quinone, (R,R,R)-alpha-tocopherol quinone], in series [2] (100 μM each), the “reduction rate relative to the corresponding S,R,R stereoisomer” value is recorded as “more than twice”. Moreover, the “rate of quinone reduction by SQR” value in series [2] was “around 125 nM/s”. For the same compound, the “rate of SQR reduction as a function of concentration” value in series [2] (in the absence of the S,R,R isomer) is given as “increases with increasing R,R,R-alpha-tocopherol quinone concentration”. In addition, in series [2] (in the presence of S,R,R-alpha-tocopherol quinone), the “rate of SQR reduction, upper limit with increasing concentration of the R,R,R isomer” value was not above 100 nM/s.
Turning to `Cc1c(C)c2c(c(C)c1O)CC[C@@](C)(CCC[C@H](C)CCC[C@H](C)CCCC(C)C)O2` [RRR-alpha-tocopherol, (R,R,R)-alpha-tocopherol], in series [1] (Mus musculus), the concentration giving a half-maximal response (EC50) turned out to be 175 nM. The “percent of compound converted to the quinone form, compared with mixture of all 8 stereoisomers” value is “higher” with HepG2 cells; “higher” in series [3]; “higher” in series [4] (dosed at 3 μM and 10 μM, both concentrations). Further, the “percent of compound converted, times higher than the mixture of all 8 stereoisomers” value in series [4] (3 μM) is given as “approximately 3 times”; in series [4] (10 μM) it was “approximately 2 times”.
In the case of `CC1=C(C)C(=O)C(CC[C@](C)(O)CCC[C@H](C)CCC[C@H](C)CCCC(C)C)=C(C)C1=O` [S,R,R-alpha-tocopherol quinone, reference compound], the “rate of quinone reduction by SQR” value in series [2] is recorded as “about 50 nM/s”. Besides, the “effect on the activity of the R,R,R isomer (SQR activity)” value in series [2] (1:1 mixture versus pure R,R,R isomer) is “inhibitory effect”.
With `Cc1c(C)c2c(c(C)c1O)CC[C@](C)(CCC[C@H](C)CCC[C@H](C)CCCC(C)C)O2` [SRR-alpha-tocopherol], the concentration for a half-maximal effect (EC50) in series [1] (Mus musculus) is 372 nM. Besides, the “potency in rescuing Q7 cells from oxidative stress relative to the RRR isomer” value in series [1] is “approximately half as potent as the RRR isomer”.
